Results from PubChem BioAssay AID2060899 (Molecular Pharmacology Branch, DTP, NCI, 2025).

System: 565726-208-R1-J5-PDC complex spheroids, growth inhibition
Test: Anticancer human tumor 565726-208-R1-J5-PDC patient-derived pancreatic adenocarcinoma cell line growth inhibition [RAS]
Conditions: for IC50: curve of first compound; for viability, T/C: stronger effect = lower value
In short: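 Multi-cell-type spheroids: tumor cells plus HUVEC endothelial cells and mesenchymal stem cells. RAS-pathway inhibitors were combined with targeted agents, each dosed in half-log steps down from clinical Cmax, or from 10 microM when Cmax was unknown.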
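Note: spheroids exposed to compounds for seven days before readout.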
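Throughout, for viability, T/C: 100% = DMSO vehicle control viability.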

Compound: CC1(C)CCC(Nc2ncc(C(F)(F)F)c(-c3c[nH]c4c(P(C)(C)=O)c(C#N)ccc34)n2)CN1 (centres undefined) + CCn1c(-c2cc(N3CCN(C)CC3)cnc2C(C)OC)c2c3cc(ccc31)-c1csc(n1)CC(NC(=O)C1CC1C)C(=O)N1CCCC(N1)C(=O)OCC(C)(C)C2
- IC50 (second compound 0.000949 µM): 1.34 nM
- IC50 (second compound 0.003 µM): < 0.949 nM
- IC50 (second compound 0.00949 µM): < 0.949 nM
- IC50 (second compound 0.03 µM): < 0.949 nM
- IC50 (second compound 0.0949 µM): < 0.949 nM
- IC50 (second compound 0.3 µM): < 0.949 nM
- viability, T/C (second compound 0.000949 µM, first compound 0.000949 µM): 54.4%
- viability, T/C (second compound 0.000949 µM, first compound 0.003 µM): 41.2%
- viability, T/C (second compound 0.000949 µM, first compound 0.00949 µM): 30.8%
- viability, T/C (second compound 0.000949 µM, first compound 0.03 µM): 31.5%
- viability, T/C (second compound 0.000949 µM, first compound 0.0949 µM): 31.6%
- viability, T/C (second compound 0.000949 µM, first compound 0.3 µM): 34.4%
- viability, T/C (second compound 0.003 µM, first compound 0.000949 µM): 46.8%
- viability, T/C (second compound 0.003 µM, first compound 0.003 µM): 40.3%
- viability, T/C (second compound 0.003 µM, first compound 0.00949 µM): 38.4%
- viability, T/C (second compound 0.003 µM, first compound 0.03 µM): 28.9%
- viability, T/C (second compound 0.003 µM, first compound 0.0949 µM): 32.6%
- viability, T/C (second compound 0.003 µM, first compound 0.3 µM): 29.9%
- viability, T/C (second compound 0.00949 µM, first compound 0.000949 µM): 37.3%
- viability, T/C (second compound 0.00949 µM, first compound 0.003 µM): 36.1%
- viability, T/C (second compound 0.00949 µM, first compound 0.00949 µM): 30.4%
- viability, T/C (second compound 0.00949 µM, first compound 0.03 µM): 30.7%
- viability, T/C (second compound 0.00949 µM, first compound 0.0949 µM): 28.1%
- viability, T/C (second compound 0.00949 µM, first compound 0.3 µM): 28.7%
- viability, T/C (second compound 0.03 µM, first compound 0.000949 µM): 30%
- viability, T/C (second compound 0.03 µM, first compound 0.003 µM): 30.9%
- viability, T/C (second compound 0.03 µM, first compound 0.00949 µM): 26.4%
- viability, T/C (second compound 0.03 µM, first compound 0.03 µM): 25.5%
- viability, T/C (second compound 0.03 µM, first compound 0.0949 µM): 28.5%
- viability, T/C (second compound 0.03 µM, first compound 0.3 µM): 26%
- viability, T/C (second compound 0.0949 µM, first compound 0.000949 µM): 24.8%
- viability, T/C (second compound 0.0949 µM, first compound 0.003 µM): 27.1%
- viability, T/C (second compound 0.0949 µM, first compound 0.00949 µM): 26.1%
- viability, T/C (second compound 0.0949 µM, first compound 0.03 µM): 24%
- viability, T/C (second compound 0.0949 µM, first compound 0.0949 µM): 26.8%
- viability, T/C (second compound 0.0949 µM, first compound 0.3 µM): 23.8%
- viability, T/C (second compound 0.3 µM, first compound 0.000949 µM): 22.5%
- viability, T/C (second compound 0.3 µM, first compound 0.003 µM): 23.4%
- viability, T/C (second compound 0.3 µM, first compound 0.00949 µM): 22.8%
- viability, T/C (second compound 0.3 µM, first compound 0.03 µM): 22.4%
- viability, T/C (second compound 0.3 µM, first compound 0.0949 µM): 25.4%
- viability, T/C (second compound 0.3 µM, first compound 0.3 µM): 21.9%

Compound: CCc1c2c(nc3ccc(O)cc13)-c1cc3c(c(=O)n1C2)COC(=O)[C@]3(O)CC + C=CC(=O)N1CCN(c2nc(OCC3CCCN3C)nc3c(F)c(-c4nc(N)cc(C)c4C(F)(F)F)c(Cl)cc23)C(C)C1
- IC50 (second compound 0.00316 µM): 4.93 nM
- IC50 (second compound 0.01 µM): 4.61 nM
- IC50 (second compound 0.0316 µM): 5.78 nM
- IC50 (second compound 0.1 µM): 5.53 nM
- IC50 (second compound 0.316 µM): 3.96 nM
- IC50 (second compound 1 µM): 5.1 nM
- viability, T/C (second compound 0.00316 µM, first compound 0.000949 µM): 88.2%
- viability, T/C (second compound 0.00316 µM, first compound 0.003 µM): 61.3%
- viability, T/C (second compound 0.00316 µM, first compound 0.00949 µM): 34.5%
- viability, T/C (second compound 0.00316 µM, first compound 0.03 µM): 23.3%
- viability, T/C (second compound 0.00316 µM, first compound 0.0949 µM): 15.2%
- viability, T/C (second compound 0.00316 µM, first compound 0.3 µM): 7.24%
- viability, T/C (second compound 0.01 µM, first compound 0.000949 µM): 98.5%
- viability, T/C (second compound 0.01 µM, first compound 0.003 µM): 58.2%
- viability, T/C (second compound 0.01 µM, first compound 0.00949 µM): 33.8%
- viability, T/C (second compound 0.01 µM, first compound 0.03 µM): 24.9%
- viability, T/C (second compound 0.01 µM, first compound 0.0949 µM): 14.3%
- viability, T/C (second compound 0.01 µM, first compound 0.3 µM): 8.62%
- viability, T/C (second compound 0.0316 µM, first compound 0.000949 µM): 121%
- viability, T/C (second compound 0.0316 µM, first compound 0.003 µM): 68.4%
- viability, T/C (second compound 0.0316 µM, first compound 0.00949 µM): 35.4%
- viability, T/C (second compound 0.0316 µM, first compound 0.03 µM): 21.1%
- viability, T/C (second compound 0.0316 µM, first compound 0.0949 µM): 13.2%
- viability, T/C (second compound 0.0316 µM, first compound 0.3 µM): 8.94%
- viability, T/C (second compound 0.1 µM, first compound 0.000949 µM): 134%
- viability, T/C (second compound 0.1 µM, first compound 0.003 µM): 64.1%
- viability, T/C (second compound 0.1 µM, first compound 0.00949 µM): 39.3%
- viability, T/C (second compound 0.1 µM, first compound 0.03 µM): 18.2%
- viability, T/C (second compound 0.1 µM, first compound 0.0949 µM): 15.1%
- viability, T/C (second compound 0.1 µM, first compound 0.3 µM): 8.7%
- viability, T/C (second compound 0.316 µM, first compound 0.000949 µM): 113%
- viability, T/C (second compound 0.316 µM, first compound 0.003 µM): 53%
- viability, T/C (second compound 0.316 µM, first compound 0.00949 µM): 33.1%
- viability, T/C (second compound 0.316 µM, first compound 0.03 µM): 21.1%
- viability, T/C (second compound 0.316 µM, first compound 0.0949 µM): 13.3%
- viability, T/C (second compound 0.316 µM, first compound 0.3 µM): 8.96%
- viability, T/C (second compound 1 µM, first compound 0.000949 µM): 130%
- viability, T/C (second compound 1 µM, first compound 0.003 µM): 59.1%
- viability, T/C (second compound 1 µM, first compound 0.00949 µM): 35%
- viability, T/C (second compound 1 µM, first compound 0.03 µM): 32.9%
- viability, T/C (second compound 1 µM, first compound 0.0949 µM): 18.6%
- viability, T/C (second compound 1 µM, first compound 0.3 µM): 11.7%
